Laboratory results reported in patent EP1163363B1 (priority 1999, dated 2000).

Columns and labels:
[1] = biological target: T1, Yersinia protein tyrosine phosphatase (YOP) (Yersinia enterocolitica, UniProt P15273); assay type: biochemical
T1 construct: purchased Upstate Biotechnology

Src kinase = biological target: T2, Src kinase (Homo sapiens, UniProt P12931); experiment: Solution phase FRET assay of Src kinase activity (rhodamine labelled SHPS-1 peptide / SHP2-GFP); assay type: biochemical; details: 10 µM staurosporine added to the reaction prior to Src enzyme; 3 units of Src kinase, 2 hours at 37°C
T2 construct: purchased Upstate Biotechnology
T2 sequence (P12931 whole entry): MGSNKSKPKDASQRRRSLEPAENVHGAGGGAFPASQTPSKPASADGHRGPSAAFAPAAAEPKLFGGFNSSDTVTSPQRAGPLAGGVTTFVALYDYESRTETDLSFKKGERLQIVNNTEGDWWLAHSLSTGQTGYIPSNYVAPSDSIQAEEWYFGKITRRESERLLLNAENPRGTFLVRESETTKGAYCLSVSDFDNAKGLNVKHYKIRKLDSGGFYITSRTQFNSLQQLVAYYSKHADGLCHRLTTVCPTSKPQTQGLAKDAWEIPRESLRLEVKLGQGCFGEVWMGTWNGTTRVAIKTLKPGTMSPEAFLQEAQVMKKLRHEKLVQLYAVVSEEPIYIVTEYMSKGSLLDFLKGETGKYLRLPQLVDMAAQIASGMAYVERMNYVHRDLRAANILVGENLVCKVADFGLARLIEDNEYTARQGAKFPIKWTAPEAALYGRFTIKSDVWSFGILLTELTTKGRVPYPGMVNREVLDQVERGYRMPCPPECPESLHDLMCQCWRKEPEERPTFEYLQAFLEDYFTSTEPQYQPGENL
Protocol: SHPS-1 peptide labelled with rhodamine is phosphorylated using 3 units of Src kinase (Upstate Biotechnology) in a 40 µl reaction containing 100 µM peptide, 50 mM Tris-HCl pH7.2, 1 mM ATP, 10 mM MgCl2, 10 mM β-mercaptoethanol, 0.1 mg/ml BSA and 0.015%(v/v) Brij 35, over a period of 2 hours at 37°C. Non-phosphorylated control samples are prepared under identical conditions in the absence of the kinase.
SHP2-GFP is diluted to 0.5 µM in assay buffer (50 mM Tris-HCl pH7.2, 10 mM β-mercaptoethanol, 0.5mg/ml BSA, 0.015% Brij 35). 98 µl of this solution is used per assay. Initial readings of the fluorescence of the SHP2-GFP construct are made using 485nm excitation wavelength and 520nm emission wavelength. Rhodamine labelled peptide (2µl of above phosphorylation reactions) is added to the SHP2-GFP solution and formation of FRET followed in real-time by measuring the decrease in fluorescence emission of SHP2-GFP at 520 nm as shown in Figure 13.
Phosphonlation of the peptide is prevented by inhibiting the enzyme, Src, with the potent kinase inhibitor staurosporine. Phosphorylation of the rhodamine labelled SHPS-1 peptide is performed as described above in the presence and absence of 10 µM staurosporine added to the reaction prior to Src enzyme.

T1 sequence (P15273 whole entry): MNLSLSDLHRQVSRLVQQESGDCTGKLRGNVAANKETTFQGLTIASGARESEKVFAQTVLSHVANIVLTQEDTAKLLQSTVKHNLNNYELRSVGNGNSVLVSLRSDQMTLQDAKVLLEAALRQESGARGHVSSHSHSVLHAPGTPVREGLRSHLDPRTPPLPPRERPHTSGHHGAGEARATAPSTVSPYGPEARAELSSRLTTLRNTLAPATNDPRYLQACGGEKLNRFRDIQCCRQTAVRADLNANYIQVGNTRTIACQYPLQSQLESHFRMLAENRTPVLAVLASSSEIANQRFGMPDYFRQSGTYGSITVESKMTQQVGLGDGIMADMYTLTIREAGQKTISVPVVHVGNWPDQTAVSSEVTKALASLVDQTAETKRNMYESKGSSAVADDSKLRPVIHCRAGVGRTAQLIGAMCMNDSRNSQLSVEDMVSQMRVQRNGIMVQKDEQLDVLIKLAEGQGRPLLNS

Row | SMILES | IC50 [1] [µM] | Inhibition of Src phosphorylation of SHPS-1 peptide (formation of FRET partnership with SHP2-GFP) (Src kinase)
1 | [Na+].[Na+].[Na+].[O]=[V]([O-])([O-])[O-] [sodium orthovanadate, Sodium orthovanadate] | 0.25 | –
2 | CN[C@@H]1C[C@H]2O[C@@](C)([C@@H]1OC)n1c3ccccc3c3c4c(c5c6ccccc6n2c5c31)C(=O)NC4 [staurosporine] | – | fail to form a FRET partnership
